# Reference: paper PMC4829233, “Identification of Novel Chemical Scaffolds Inhibiting Trypanothione Synthetase from Pathogenic Trypanosomatids” (PLoS Neglected Tropical Diseases, 2016)
# Values joined by “and” are separate entries in the source; they are usually repeats but may differ in a detail not shown here. Equal entries are not always repeated. Where two headings read alike, the source gives them in different places.
# Assays:
# Test in all cases: biochemical
# [1] = molecular target: TbTryS (Trypanosoma brucei trypanothione synthetase) (Trypanosoma brucei brucei, UniProt Q8IEX1); conditions: for inhibition at 30 µM: read-out: % TbTryS inhibition ± 2σn-1; for activity at 30 µM: read-out: TbTryS Activity ± 2σn-1 (%)
# [2] = molecular target: TcTryS (Trypanosoma cruzi trypanothione synthetase) (Trypanosoma cruzi, UniProt Q9GT49); format: biochemical; conditions: for inhibition at 30 µM: read-out: % TcTryS inhibition ± 2σn-1; for remaining activity at 30 µM: read-out: TcTryS Activity ± 2σn-1 (%)
# [3] = molecular target: LiTryS (Leishmania infantum trypanothione synthetase) (Leishmania infantum, UniProt A4I2Z3); format: biochemical; conditions: for inhibition at 30 µM: read-out: % LiTryS inhibition ± 2σn-1; for activity at 30 µM: read-out: LiTryS Activity ± 2σn-1 (%)
# Chain of LiTryS (Leishmania infantum trypanothione synthetase) (A4I2Z3 1-652): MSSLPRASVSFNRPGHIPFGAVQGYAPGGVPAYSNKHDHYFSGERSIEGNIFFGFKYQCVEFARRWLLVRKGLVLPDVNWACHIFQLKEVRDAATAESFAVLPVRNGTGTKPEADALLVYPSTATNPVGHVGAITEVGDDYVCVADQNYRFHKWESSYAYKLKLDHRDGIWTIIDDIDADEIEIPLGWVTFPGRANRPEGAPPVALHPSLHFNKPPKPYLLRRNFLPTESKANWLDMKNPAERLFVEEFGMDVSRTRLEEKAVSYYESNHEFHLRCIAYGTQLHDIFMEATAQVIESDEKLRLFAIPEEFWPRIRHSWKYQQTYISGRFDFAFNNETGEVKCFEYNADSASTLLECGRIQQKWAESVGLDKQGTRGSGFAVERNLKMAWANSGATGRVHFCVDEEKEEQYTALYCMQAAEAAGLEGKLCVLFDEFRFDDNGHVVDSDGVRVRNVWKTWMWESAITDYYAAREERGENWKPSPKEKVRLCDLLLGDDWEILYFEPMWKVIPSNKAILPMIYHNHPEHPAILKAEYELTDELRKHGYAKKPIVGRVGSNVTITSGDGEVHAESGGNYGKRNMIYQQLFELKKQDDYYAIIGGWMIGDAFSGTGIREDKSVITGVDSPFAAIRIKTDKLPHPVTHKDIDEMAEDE
# Chain of TbTryS (Trypanosoma brucei trypanothione synthetase) (Q8IEX1 1-627): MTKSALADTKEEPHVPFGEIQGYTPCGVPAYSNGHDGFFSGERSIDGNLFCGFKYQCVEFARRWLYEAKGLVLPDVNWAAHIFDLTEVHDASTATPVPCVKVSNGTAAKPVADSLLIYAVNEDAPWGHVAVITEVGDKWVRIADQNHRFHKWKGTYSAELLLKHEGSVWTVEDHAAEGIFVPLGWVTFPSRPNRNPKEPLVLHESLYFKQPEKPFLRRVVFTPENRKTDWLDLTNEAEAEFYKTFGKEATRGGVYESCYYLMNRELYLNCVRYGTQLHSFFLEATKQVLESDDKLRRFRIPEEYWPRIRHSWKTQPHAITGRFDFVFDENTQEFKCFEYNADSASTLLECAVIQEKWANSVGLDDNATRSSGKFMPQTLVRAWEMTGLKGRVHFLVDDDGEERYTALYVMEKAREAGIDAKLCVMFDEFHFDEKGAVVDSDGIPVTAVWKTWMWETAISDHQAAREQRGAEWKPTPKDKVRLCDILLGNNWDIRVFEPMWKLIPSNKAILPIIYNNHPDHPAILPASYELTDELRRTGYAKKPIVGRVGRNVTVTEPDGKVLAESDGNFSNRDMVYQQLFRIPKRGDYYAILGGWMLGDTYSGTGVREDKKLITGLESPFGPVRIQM
# Chain of TcTryS (Trypanosoma cruzi trypanothione synthetase) (Q9GT49 whole entry): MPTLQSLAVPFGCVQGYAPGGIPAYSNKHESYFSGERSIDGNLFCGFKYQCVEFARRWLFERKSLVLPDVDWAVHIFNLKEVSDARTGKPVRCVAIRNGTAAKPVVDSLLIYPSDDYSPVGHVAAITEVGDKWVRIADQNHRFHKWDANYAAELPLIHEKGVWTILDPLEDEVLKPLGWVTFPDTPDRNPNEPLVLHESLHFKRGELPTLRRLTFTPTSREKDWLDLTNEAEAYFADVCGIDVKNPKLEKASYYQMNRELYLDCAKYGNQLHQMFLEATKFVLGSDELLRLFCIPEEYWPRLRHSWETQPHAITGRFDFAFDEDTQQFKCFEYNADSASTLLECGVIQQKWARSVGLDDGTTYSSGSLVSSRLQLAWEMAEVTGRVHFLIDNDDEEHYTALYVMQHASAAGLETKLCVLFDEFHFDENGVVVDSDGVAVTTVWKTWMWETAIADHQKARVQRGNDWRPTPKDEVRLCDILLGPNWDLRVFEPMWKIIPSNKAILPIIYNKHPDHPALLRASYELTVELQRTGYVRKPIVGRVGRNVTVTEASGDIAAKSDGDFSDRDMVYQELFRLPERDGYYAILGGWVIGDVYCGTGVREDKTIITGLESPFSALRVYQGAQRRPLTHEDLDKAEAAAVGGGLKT
SMILES,TbTryS Activity ± 2σn-1 (%) [1],TcTryS Activity ± 2σn-1 (%) [2],LiTryS Activity ± 2σn-1 (%) [3],further results
COc1ccc(C2C(C(=O)c3ccc(OC)c(OC)c3)=C(O)C(=O)N2c2nc3ccc(Cl)cc3s2)cc1 (stereo not drawn) [ADPKN163],88.0 ± 5.0; 4%,113.6 ± 3.4; 4%,82.3 ± 7.7; 3%,
CC(C)(C)NC(=O)Nc1ncc2cc(-c3ccc4c(c3)OCO4)c(NC(=O)NC(C)(C)C)nc2n1 [ZEA40],,,,inhibition at 30 µM [1]: 25.3 ± 5.2%; activity at 30 µM [1]: 74.7%; inhibition at 30 µM [2]: 50%; inhibition at 30 µM [3]: 15.3 ± 8.3%; activity at 30 µM [3]: 84.7%
c1ccc(COc2ccc(CNCCCNCc3ccc(OCc4ccccc4)cc3)cc2)cc1 [APC1-71B],66.0 ± 0.7; 3%,99.0 ± 19.1; 2%,80.8 ± 8.7; 3%,
Cc1ccc2nc(N3C(=O)C(O)=C(C(=O)c4ccc5c(c4)OCCO5)C3c3ccccc3)sc2c1 (stereo not drawn) [ADMRC151],107.7 ± 6.1; 3%,97.0 ± 5.2; 3%,83.1 ± 2.3; 3%,
CCCCN(CCCC)C(=O)c1cnc(N)o1 [ZVR103],82.4 ± 4.7; 3%,100.0 ± 5.0; 2%,99.4 ± 5.6; 4%,
[O-][n+]1onc2cc(Br)ccc21 [Compound J33],96.5 ± 6.3; 3%,98.1 ± 4.0; 3%,76.0 ± 6.8; 3%,
COc1cc(CNCCCCCCCCNCc2ccc(O)c(OC)c2)ccc1O [APC1-122],91.6 ± 3.6; 3%,94.5 ± 7.0; 4%,102.8 ± 8.6; 3%,
COc1ccc(C2C(C(=O)c3ccc4c(c3)OCCO4)=C(O)C(=O)N2c2nc3ccccc3s2)cc1 (stereo not drawn) [ADPKN165],,107.1 ± 4.5; 4%,,activity at 30 µM [1]: 166%; remaining activity at 30 µM [2]: 107 ± 4.5%; activity at 30 µM [3]: 83.5 ± 6%
[O-][n+]1onc2cc(F)c(F)cc21 [Compound J40],85.0 ± 1.4; 2%,87.4 ± 1.6; 3%,92.9 ± 5.1; 4%,
COc1ccc(C2C(C(=O)c3ccc4c(c3)OCCO4)=C(O)C(=O)N2c2nc3ccc(C)cc3s2)cc1OC (stereo not drawn) [ADMRC153],103.3 ± 3.2; 3%,109.3 ± 4.7; 4%,87.6 ± 6.0; 4%,
c1ccc(CNCCCCCCCCNCc2ccccc2)cc1 [EAP1-5 (I)],78.3 ± 3.6; 4%,82.8 ± 5.2; 3%,62.8 ± 3.9; 4%,
CCNC(=S)Nc1nc2nc(N)ncc2cc1-c1ccc2c(c1)OCO2 [ZEA41],,,,inhibition at 30 µM [1]: 20.9 ± 4.4%; activity at 30 µM [1]: 79.1%; inhibition at 30 µM [2]: 50%; inhibition at 30 µM [3]: 13.6 ± 3.4%; activity at 30 µM [3]: 86.4%
Clc1ccc(CNCCCCCCCCCCCCNCc2ccc(Cl)cc2)cc1 [EAP1-67],57.6 ± 1.6; 4 (1.33) %,76.2 ± 6.6; 4 (1.34) %,,% TbTryS inhibition ± 2σn-1 [1]: 42.4 ± 1.6%; (1.33); % TcTryS inhibition ± 2σn-1 [2]: 23.8 ± 6.6%; (1.34); IC50 ([3]; read-out: LiTryS IC50 (estimated)): ~30 µM
COc1ccc(C(=O)C2=C(O)C(=O)N(c3nc4ccc(Cl)cc4s3)C2c2ccc(F)cc2)cc1OC (stereo not drawn) [ADPKN164],,99.6 ± 5.7; 4%,,TbTryS Activity ± 2σn-1 (%) ([1]; 30 µM): 123.2 ± 7.0; 4 (0.83) %; activity at 30 µM [1]: 123%; remaining activity at 30 µM [2]: 99.6 ± 5.7%; inhibition at 30 µM [3]: ~35%; activity at 30 µM [3]: 66 ± 3.4%
COc1cc(C2C(C(=O)c3ccc4c(c3)OCCO4)=C(O)C(=O)N2c2nc3ccc(C)cc3s2)ccc1O (stereo not drawn) [ADMRC152],115.4 ± 4.3; 3%,103.1 ± 6.2; 3%,92.5 ± 6.6; 4%,
COc1cc2no[n+]([O-])c2cc1OC [Compound J32],93.4 ± 4.5; 4%,98.1 ± 6.4; 4%,72.7 ± 7.2; 4%,
COc1ccc(CNCCCCCCCCCCCCNCc2ccc(OC)cc2)cc1 [EAP1-11],77.2 ± 4.5; 5 (1.30) %,82.8 ± 7.6; 3%,62.0 ± 7.8; 4%,
Cc1ccc2nc(N3C(=O)C(O)=C(C(=O)c4ccc5c(c4)OCCO5)C3c3ccc(F)cc3)sc2c1 (stereo not drawn) [ADMRC154],110.3 ± 8.7 ; 12%,93.9 ± 2.1; 3%,64.7 ± 3.7; 4%,% LiTryS inhibition ± 2σn-1 [3]: ~35%

SMILES,TbTryS Activity ± 2σn-1 (%) [1],TcTryS Activity ± 2σn-1 (%) [2],LiTryS Activity ± 2σn-1 (%) [3],further results
Brc1ccc(CNCCCCCCCCNCc2ccc(Br)cc2)cc1 [EAP1-46],73.4 ± 1.7; 3%,93.7 ± 7.6; 3%,61.8 ± 3.9; 3%,
O=[N+]([O-])c1ccc2c(c1)no[n+]2[O-] [Compound J16],92.6 ± 4.9; 3%,76.5 ± 1.0; 3%,80.1 ± 9.2; 4%,
CCNC(=S)Nc1nc2nc(NCCCN3CCOCC3)ncc2cc1-c1cc(OC)cc(OC)c1 [ZVR159],,168.6 ± 4.1; 4 (1.10) %,,activity at 30 µM [1]: 81.3 ± 1.6%; % TryS activity (TcTryS) [2]: 1.2 ± 3.1; 3% and 0.2 ± 4.0; 4% and 1.2 ± 5.1; 4%; remaining activity at 30 µM [2]: 169%; activity at 30 µM [3]: 101 ± 5.8%
COc1ccc(CNCCCCCCCCCCNCc2ccc(OC)cc2)cc1 [APC1-115],69.0 ± 6.3; 3%,76.1 ± 2.5; 4%,79.8 ± 2.3; 3%,
Cc1ccc2nc(N3C(=O)C(O)=C(C(=O)c4ccc5c(c4)OCCO5)C3c3ccc(O)cc3)sc2c1 (stereo not drawn) [AD82],107.7 ± 6.4; 4%,103.4 ± 6.4; 2%,86.2 ± 5.8; 4%,
[O-][n+]1onc2cc(F)ccc21 [Compound J31],,118.8 ± 6.1; 4 (1.00) %,,activity at 30 µM [1]: 96.2 ± 3.7%; remaining activity at 30 µM [2]: 119%; activity at 30 µM [3]: 84.1 ± 0.001%
COc1ccc(C2C(C(=O)c3ccc4c(c3)OCCO4)=C(O)C(=O)N2c2nc3ccc(Cl)cc3s2)cc1OC (stereo not drawn) [ADMRC157],102.1 ± 0.01; 3%,109.2 ± 1.5; 4%,89.1 ± 2.8; 4%,
Cc1ccc(CNCCCCCCCCNCc2ccc(C)cc2)cc1 [EAP1-45],78.4 ± 0.6; 3%,92.3 ± 4.5; 4%,91.9 ± 2.7; 3%,
c1ccc(CNCCCCCCCCCCNCc2ccccc2)cc1 [APC1-113],89.5 ± 3.6; 3%,88.5 ± 6.6; 3%,86.9 ± 6.3; 3%,
Clc1ccc(CNCCCCCCCCCCNCc2ccc(Cl)cc2)cc1 [EAP1-53],63.9 ± 4.1; 4 (1.34) %,73.3 ± 2.3; 4%,69 ± 5.7; 4 (1.305) %,
COc1ccc(C2C(C(=O)c3ccc(OC)c(OC)c3)=C(O)C(=O)N2c2nc3ccc(OC)cc3s2)cc1 (stereo not drawn) [ADPKN 162],82.0 ± 1.6; 3%,98.1 ± 4.7; 4%,79.8 ± 3.4; 4%,
c1ccc(COc2ccc(CNCCCCCCCCNCc3ccc(OCc4ccccc4)cc3)cc2)cc1 [APC1-109],,66.2 ± 10.9; 2%,72.2 ± 6.2; 4%,
Cc1ccc(CNCCCCCCCCCCNCc2ccc(C)cc2)cc1 [EAP1-55],61.8 ± 4.8; 3%,68.6 ± 3.9; 2%,71.5 ± 5.8; 4%,
COc1cc(CNCCCNCc2ccc(OCc3ccccc3)c(OC)c2)ccc1OCc1ccccc1 [APC1-79],66.0 ± 2.9; 4%,63.3 ± 2.7; 2%,72.1 ± 3.4; 4 (1.27) %,
[O-][n+]1onc2cc(I)ccc21 [Compound J27],98.2 ± 5.6; 3%,90.1 ± 5.9; 3%,71.0 ± 8.0; 3%,
"CN1CCN(CCCN2c3ccccc3Sc3ccc(Cl)cc32)CC1 [prochlorperazine, reference compound]",,,,inhibition of TcTryS [2]: none of the TryS was inhibited; reduction of TcTryS activity [2]: 34%
c1ccc(COc2ccc(CNCCCCCCNCc3ccc(OCc4ccccc4)cc3)cc2)cc1 [APC1-99],,,,IC50 [1]: ~30 µM; inhibition at 30 µM [2]: 33.4 ± 4.1%; remaining activity at 30 µM [2]: 66.6%
